Measurements published in patent publication US20240239818A1, “COMPOUNDS AND COMPOSITIONS COMPRISING FLUOROPHORES FOR USE IN VISUALIZATION AND PURIFICATION OR MANIPULATION” (priority 2022, published 2024).
Where two headings read alike, the source gives them in different places.

Legend:
[1] = assay type: physicochemical
Procedure: Determination of logD7.4. The log of distribution coefficients at pH 7.4 was determined in octanol-phosphate-buffered saline (PBS) using the miniaturized shake flask setup described previously.^36, 47 Briefly, 150 mL each of octanol and PBS pH 7.4 were stirred vigorously for 12-16 h. The layers were allowed to stand for at least 24 h for phase separation. The separated layers were collected and served as PBS saturated with octanol (PBS*) and octanol saturated with PBS (octanol*). Stock solutions (1 mM or 5 mM) of ligands were prepared in DMSO and diluted in PBS* to obtain 1 μM or 10 μM (3-5 mL) of the standard (std). This standard was used to prepare appropriate dilutions using octanol*, in triplicate, in 2-mL glass vials. The leftover standard was used to determine the standard concentration (Cstd). The vials were vortexed for 1 min and shaken horizontally at 700 rpm for 2 h. The vials were then shaken upright at 150 rpm for 2 h to allow the phases to separate. The octanol* layer was pipetted out, and the PBS* layer was used for further analyses. The concentrations of ligands in the standard and PBS* (CPBS*) were determined via fluorescence measurements of 200 μL of PBS* or std in 96-well plates on the Cytation 5 Multimode Plate Reader (BioTek). For Si-rhodamine containing ligands, 2-20 μL of trifluoroacetic acid was added to each well of the 96-well plate prior to the fluorescence measurements. Reported values are averages of at least two measurements. The logD7.4 was obtained as described previously using equation 2:
[formula] • where Cstd is the standard concentration in PBS, CPBS* is the concentration in PBS after partitioning, r is the dilution factor of the standard solution, VPBS* is the volume of PBS used in the partitioning, and Voctanol* is the volume of octanol used in the partitioning.

[2] = target: T1, msGFP-HaloTag® fusion protein (mitochondria) from HEK293T cells (Rhodococcus rhodochrous, UniProt P0A3G2, A155T/A167V/A172T/A224E/C128F/C176G/D78G/E160K/E257K/H272N/K175M/K195N/L47V/L88M/N227D/S58T/T264A/Y273L/Y87F); test: Affinity capture (streptavidin microbeads) and in-gel fluorescence; assay type: cell-based; details: for affinity capture (protein bound to streptavidin): streptavidin beads; for capture efficiency: mean±SEM, n=3, streptavidin beads
T1 construct: and (4) HaloTag®; expressed in transfected cells; host or cells: HEK293T, calcium phosphate transfection
T1 sequence (P0A3G2 other isoform, or with tags, fused parts or gaps with the stated changes): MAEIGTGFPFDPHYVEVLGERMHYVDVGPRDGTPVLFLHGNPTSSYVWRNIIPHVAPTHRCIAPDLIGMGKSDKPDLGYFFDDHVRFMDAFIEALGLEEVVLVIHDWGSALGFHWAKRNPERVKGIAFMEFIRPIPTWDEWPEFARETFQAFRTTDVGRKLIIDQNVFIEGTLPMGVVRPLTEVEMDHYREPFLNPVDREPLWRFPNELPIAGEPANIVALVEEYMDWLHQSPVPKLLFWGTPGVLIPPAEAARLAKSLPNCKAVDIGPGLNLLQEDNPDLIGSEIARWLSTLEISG
Procedure: Affinity capture and in-gel fluorescence experiments. Affinity capture pulldown isolation experiments of biotin-labeled HaloTag® fusion proteins were performed on ice-cold isolation buffer (IB) consisting of KCl (0.18 M), ethylene glycol-bis(β-aminoethyl ether)-N,N,N′,N′-tetraacetic acid (EGTA; 1 mM), 3-(N-morpholino)propanesulfonic acid (MOPS; 5 mM); the pH was adjusted to pH=7.35 using KOH(aq).^51 HEK293T cells were scraped with 500 μL IB and homogenized using 12 strokes with a 27G syringe. The resulting homogenate was spun at 4° C. at 1000 g for 3 min to pellet large cellular debris. 50 μL of streptavidin-coated microbeads (Miltenyi, 130-048-101) were added to the supernatant and incubated for 30 min at 4° C. with slow rotation. LS columns (Miltenyi, 130-042-401) were prepared by first washing with 3 mL IB consisting of 2.5% bovine serum albumin (BSA; Jackson ImmunoResearch, 001-000-162) and then with plain IB (3×). Prior to supernatant-microbead mixture being loaded onto LS columns, 5% volume was taken for downstream total fraction calculations (i.e., the “total/20” sample). Columns and samples were kept at 4° C. (cold room) while samples were loaded onto columns and washed with IB (3×); this fraction was collected as designated as “wash”. After the washing step, the column was removed from the QuadroMACs magnet holder (Miltenyi, 130-092-857) and eluted with gentle plunge action into an Eppendorf tube; this was labeled as “eluate”. From here, there were three fractions for each condition: total/20, wash (unbound), and eluate (bound). Since mitochondria were being isolated, these samples were spun at 4° C. and 20,000 g to pellet mitochondria. These samples were then solubilized using the lysis buffer containing 1×PBS, 2% SDS, 1% Triton x-100, 10 mM EDTA, and protease inhibitors (2 mM PMSF, aprotinin, leupeptin, and pepstatin A). Samples were then incubated at 72° C. for 3-4 min after the addition of sample buffer (SB) (DTT, glycerol, and bromophenol blue). For protein detection, 10-20 μL of the sample was subjected to sodium dodecyl sulfate-polyacrylamide gel electrophoresis (SDS-PAGE), using 13% gels. The affinity capture pulldown efficiency was monitored using in-gel fluorescence. The msGFP signal from HaloTag®-TEV-4×GS-msGFP-mito after cell lysis and SDS-PAGE was analyzed, in-gel, using a BioRad Chemidoc MP imager (BioRad) through GFP fluorescence excitation and emission filters. Data were quantified by densitometry using Fiji.^52 Capture efficiency was calculated using equation 3:
[formula] • where Ieluate is the in-gel fluorescence intensity of the bead-bound fraction and Itotal/20 is the in-gel fluorescence intensity of the 5% of crude sample reserved for concentration control (i.e., the “total/20” sample).
Evaluation of biotin-HaloTag® ligand. A live cell permeable biotin reagent was saught for affinity pulldown of HaloTag® fusion proteins, given the broad utility of biotin conjugates in biochemistry and cell biology. To evaluate the performance of biotin-containing HaloTag® ligand, an assay was developed (FIG. 3A) where the HaloTag® is expressed as a fusion with monomeric superfolder green fluorescent protein (msGFP); the construct also included an OMP25 sequence to localize the fusion protein to the outer mitochondrial membrane, allowing straightforward imaging and affinity capture experiments.^28-29 HEK293T cells expressing this fusion protein were incubated with biotin-containing HaloTag® ligands followed by washing and cell lysis. The crude supernatant was incubated with streptavidin-coated magnetic microbeads, applied to a magnetic column, and washed. The magnet was removed, and the bead-bound mitochondria were eluted, lysed, and the resulting solution was analyzed by sodium dodecyl sulfate-polyacrylamide gel electrophoresis (SDS-PAGE) and in-gel fluorescence. To minimize dilution of the sample only the initial bead-bound fraction was collected, leaving some material on the column. […]

Molecule	logD7.4 ([1]; octanol-PBS pH 7.4)	affinity capture (protein bound to streptavidin) [2]	capture efficiency [2] [%]	logD7.4 ([1]; pH 7.4)
C[Si]1(C)c2cc(N3CC(F)C3)ccc2C2(OC(=O)c3ccc(C(=O)NCCOCCOCCCCCCCl)cc32)c2ccc(N3CC(F)C3)cc21 [5HTL, JF635-HaloTag® ligand, reference compound]	3.82	no appreciable protein capture	–	–
C[Si]1(C)C2=CC(=[N+]3CC(C(=O)NCCOCCOCCNC(=O)CCCC[C@@H]4SC[C@@H]5NC(=O)N[C@@H]54)C3)C=CC2=C(c2cc(C(=O)NCCOCCOCCCCCCCl)ccc2C(=O)[O-])c2ccc(N3CCC3)cc21 (stereo partly drawn) [compound 14, Biotin-JF646-HaloTag® ligand]	3.06	efficient affinity capture	44.8±2.8	–
C[Si]1(C)C2=CC(=[N+]3CC(F)(C(=O)NCCOCCOCCNC(=O)CCCC[C@@H]4SC[C@@H]5NC(=O)N[C@@H]54)C3)C=CC2=C(c2cc(C(=O)NCCOCCOCCCCCCCl)ccc2C(=O)[O-])c2ccc(N3CC(F)C3)cc21 (stereo partly drawn) [compound 15, Biotin-JF635-HaloTag® ligand]	3.6	efficient affinity capture	43.4±2.3	–
Biotin-JF549-HaloTag® ligand [compound 12]	–	–	–	0.07
